System: VZV-Luc
Test: CM treated VZV-Luc growth in human fetal skin implants of SCID-hu mouse model
Assay type: in vivo
Conditions: for VZV growth in implanted skin tissues: 10^3 PFU, 12 days
Excerpt: SCID mice of arbitrary sex, 6-8 weeks old were used to produce the SCID-hu mouse model by implanting human fetal skin under the mouse skin as described previously to study the therapeutic efficacy of CM on the VZV replication and attenuation. The human fetal skin tissues were acquired from Advance Biosciences Resources (Alameda, CA) and processed as described previously (Selariu, Anca et al. “ORF7 of varicella-zoster virus is a neurotropic factor.” Journal of virology vol. 86, 16 (2012): 8614-24.). The VZV-Luc was treated with CM of 10.0 μM, and 1.0 μM followed by washing with DMEM media to remove CM. The acyclovir (30 mg/kg) was used as a positive control. VZV-Luc treated with drug vehicle was used as a mock. The viral load was determined every 48 hours as total photon counts in the infected implanted tissues. The total photon counts were determined using IVIS imaging of infected animals as represented in FIGS. 10A and 10B. The image of one mouse from each group is shown in FIG. 10B after 12 days of post-treatment. Four weeks after implantation, the implanted human tissues were surgically exposed and inoculated with 10^3 PFU of VZV-Luc. Luciferase activity within the implants was measured every 48 h for 12 days using the IVIS200 imaging system and Live Image software.

[1] = VZV-Luc treated with 10.0 μM CM

COc1cc2cc(C(=O)Nc3cc(N)c4ccccc4c3CCCl)[nH]c2c(OC)c1OC [CM, centanamycin]
VZV growth in implanted skin tissues (VZV-Luc treated with 1.0 μM CM): growing very slowly and have growth defects | Luciferase activity (viral load) in implanted tissues [1]: no luciferase activity in implanted tissues | VZV growth in implanted skin tissues [1]: did not grow in skin implants

From patent US20230390386A1, “REPLICATION-DEFECTIVE VACCINES AND USES THEREOF” (priority 2020, published 2023)
